# In patent US5445951A, “Regioselective enzymatic deacylation of sucrose esters in anhydrous organic media” (priority 1993, dated 1995):
# T1: alcalase (Bacillus licheniformis, UniProt P00780)
# T1 construct: purchased Novo Nordisk (gift)
# T1 sequence (P00780 106-379): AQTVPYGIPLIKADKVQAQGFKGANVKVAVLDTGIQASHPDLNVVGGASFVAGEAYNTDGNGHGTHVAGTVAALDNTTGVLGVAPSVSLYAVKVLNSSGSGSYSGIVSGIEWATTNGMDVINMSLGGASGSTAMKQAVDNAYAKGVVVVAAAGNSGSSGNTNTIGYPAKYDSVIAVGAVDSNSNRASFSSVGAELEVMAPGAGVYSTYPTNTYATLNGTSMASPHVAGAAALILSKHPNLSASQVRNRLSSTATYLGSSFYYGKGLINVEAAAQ
# B1: alcalase: Novo Nordisk, Bacillus licheniformis (protein, UniProt P00780 106-379, looked up)
# Subtilisin Carlsberg: T1 sequence (P00780 106-379)
# B2: papain: Sigma, Papaya latex (protein, UniProt P00784 134-345, looked up)
# Papain: IPEYVDWRQKGAVTPVKNQGSCGSCWAFSAVVTIEGIIKIRTGNLNEYSEQELLDCDRRSYGCNGGYPWSALQLVAQYGIHYRNTYPYEGVQRYCRSREKGPYAAKTDGVRQVQPYNEGALLYSIANQPVSVVLEAAGKDFQLYRGGIFVGPCGNKVDHAVAAVGYGPNYILIKNSWGTGWGENGYIRIKRGTGNSYGVCGLYTSSFYPVKN
# How the values were obtained:
# [1] = format: physicochemical; conditions: estimated from known log P values / increments
# Excerpt: ^a) log P is a measurement of the solvent hydrophobicity (logarithm o
# the solvent partition coefficient between noctanol and water [Rekker, "Th
# Hydrophobic Fragmental Constant", Elsevier, Amsterdam (1977)]). The log P
# values from this table are from Laane et al. , Biotechnol Bioeng. 30,81
# lipase AY 30 [2] = assay: Effect of the solvent on lipase AY 30 SOA deacetylation; format: biochemical, Candida cylindracea; conditions: lipase AY 30, solvent as labelled, 24 hrs
# Procedure: Identical enzyme catalyzed SOA deacetylations were run in numerous anhydrous solvents. After 24 hrs incubation an aliquot was analyzed by HPLC.
# (§1) Enzyme and Solvent Screening for SOA Deacetylation. A scintillation vial was charged successively with 100 mg of powdered enzyme as received or prepared as described and 1.0 ml of 20 mM sucrose octaacetate (SOA) dissolved in an organic solvent. Following a 5 sec sonication, the vial was incubated in a controlled-temperature shaker at 45° C. and 300 RPM for 24 hrs. A 200 μl aliquot of the reaction mixture was withdrawn and centrifuged. The supernatant was collected and evaporated under a stream of N2. The residue was reconstituted in 200 μl of acetonitrile and 10 μl of this solution was analyzed by HPLC.
# protease type XXIII = assay: Effect of the solvent on protease type XXIII catalyzed deacylation of SOP; format: biochemical, Aspergillus oryzae; conditions: 24 hrs; for SheptaP's (8.3 min): HPLC peak 8.3 min; for SheptaP's (8.9 min): HPLC peak 8.9 min; for SheptaP's (9.9 min): HPLC peak 9.9 min; for SOP: solvent as labelled
# Procedure: (§2) Identical SOP deacylations were performed with lipase AY 30 or protease type XXIII in numerous anhydrous organic solvents, as shown in Tables 12 and 13.
# as §1, with “Solvent” for “Enzyme and Solvent”, “screening” for “Screening”, “SOP deacylation.” for “SOA Deacetylation.”, “lipase AY 30” for “powdered enzyme as received”, “protease type XXIII” for “prepared”, “octapropionate (SOP) and 200mM butanol” for “octaacetate (SOA)”
# lipase AY 30 [3] = assay: Effect of the solvent on lipase AY 30 catalyzed deacylation of SOP; format: biochemical, Candida cylindracea; conditions: for ShexaP (4.2 min) / SheptaP's (8.9 min) / SheptaP's (9.4 min) / SheptaP's ([…]): lipase AY 30, 24 hrs; for ShexaP (4.2 min): HPLC peak 4.2 min; for SheptaP's (8.9 min): HPLC peak 8.9 min; for SheptaP's (9.4 min): HPLC peak 9.4 min; for SheptaP's ([…]): HPLC peak […]; for SOA: lipase AY 30, solvent as labelled, 200 mM butanol, 24 hrs, peak 21.4 min; as to SheptaP's ([…]): HPLC peak 8.2 min
# Procedure: as §2
# as §1, with “Solvent” for “Enzyme and Solvent”, “screening” for “Screening”, “SOP deacylation.” for “SOA Deacetylation.”, “lipase AY 30” for “powdered enzyme as received”, “protease type XXIII” for “prepared”, “octapropionate (SOP) and 200mM butanol” for “octaacetate (SOA)”
# proleather = assay: Nucleophile screening for proleather catalyzed deacetylation of SOA in diisopropyl ether; format: biochemical, Bacillus subtilis; conditions: nucleophile 200 mM; for % conv: 66 hrs; for regiochem: peak height ratio 1'-OH / 6'-OH heptaacetate
# Procedure: (§3) Nucleophile screening for alcalase, proleather or lipase AP 12 catalyzed deacetylation of SOA. A scintillation vial was charged successively with 100 mg of powdered enzyme prepared as described, 1.0 ml of 20 mM sucrose octaacetate (SOA) and 200 mM of the nucleophile dissolved in diisopropyl ether. Following a 5 sec sonication, the vial was incubated in a controlled-temperature shaker at 45° C. and 300 RPM for 66 hrs. A 200 μl aliquot of the reaction mixture was withdrawn and centrifuged. The supernatant was collected and evaporated under a stream of N2. The residue was reconstituted in 200 μl of acetonitrile and 10 μl of this solution was analyzed by HPLC. For screening concentration effects on enzyme activity, the same protocol was followed except the nucleophile concentration was varied from 0 to 2000 mM.
# alcalase = molecular target: T1, alcalase; assay: Nucleophile screening for alcalase catalyzed deacetylation of SOA in diisopropyl ether; format: biochemical; conditions: nucleophile 200 mM, peak height ratio 1'-OH / 6'-OH heptaacetate
# Procedure: as §3
# lipase AP 12 = assay: Nucleophile screening for lipase AP 12 catalyzed deacetylation of SOA in diisopropyl ether; format: biochemical, Aspergillus niger; conditions: lipase AP 12, nucleophile 200 mM, 66 hrs
# Procedure: as §3
# [4] = as obtained from supplier; cited from earlier work
# [5] = SOP hydrolytic enzyme screen in heptane with n-butanol; format: biochemical; conditions: 24 hrs; for SheptaP's ([…]): HPLC peak […]; for SOP: residual SOP; as to SheptaP's ([…]): HPLC peak 8.2 min
# Procedure: To extend the scope and utility of this study, sucrose octapropionate was synthesized and used as substrate in enzyme catalyzed deacylation reactions. […] The hydrolytic enzymes were screened for their capability to deacylate SOP in heptane with n-butanol as the nucleophile. After 24 hrs incubation aliquots were analyzed by HPLC.
# as §1, with “screening” for “and Solvent Screening”, “SOP deacylation in heptane.” for “SOA Deacetylation.”, “octapropionate (SOP) and 200 mM butanol” for “octaacetate (SOA)”, “and” for “and evaporated under a stream of N2. The residue was reconstituted in 200 μl of acetonitrile and”
# [6] = Activity and regioselectivity of enzymes for SOA deacetylation; format: biochemical; conditions: for regioselectivity of SOA deacetylation: in words
# Procedure: An important aspect of this work was to assign, unequivocally, the structures of all sucrose hepta-, hexa-, and pentaacetates obtained by enzymatic deacetylation of SOA. These structures were assigned by perdeuterioacetylation followed by ^1 H-NMR, as described by Rathbone E. B., Carbohydr. Res., 205,402 (1990).
# HPLC analysis. Routine screening was performed on a Supelcosil LC-18-DB column (150×4.6 mm, 5μ) using an isocratic mode with either acetonitrile/water (35/65) or acetonitrile/water (60/40) as eluant for reactions involving sucrose octaacetate (SOA) and sucrose octapropionate (SOP), respectively. All flow rates were 1.0 ml/min with UV detection at 220 nm. To identify all products from SOA deacetylation, a gradient mode was employed using 15% to 35% acetonitrile in water over 40 minutes followed by 35/65 acetonitrile/water isocratic elution for 20 minutes. To screen nucleophiles for SOA deacetylation, an isocratic elution mode was employed using 30/70 acetonitrile/water for 16 min followed by a gradient from 30% to 35% acetonitrile in water over 5 min and finally isocratic elution using 35/65 acetonitrile/water for 16 min. To assess the enzyme regiochemistry for SOA deacetylation, an isocratic elution mode was employed using 25/75 acetonitrile/water for 55 minutes.
# Identification of the Sucrose Hepta, Hexa or Pentaacetates Obtained Enzymatically. The fraction of sucrose hepta, hexa or pentaacetates were identified as follows. The compound(s) of interest was dissolved in 1.0 ml 99.0 atom % pyridine--d5 followed by addition of 1.0 ml 99 +atom % acetic anhydride--d6. The resulting solution was shaken at 45° C. and 300 RPM for several hours until TLC analysis (silica gel, 9/1 CHCl3 /MeOH) indicated complete reaction. The reaction mixture was evaporated in vacuo and the residue washed several times with water to remove residual pyridine-d5 and/or acetic anhydride-d6. The resulting oily solid was dissolved in 5 ml off chloroform and passed through Whatmann 12.5 cm 1 PS silicone treated filter paper to remove water.
# (§4) The pH of commercial powdered enzymes was adjusted in the following way: The enzyme (3 g) was dissolved in 25 ml of an appropriate buffer and the pH adjusted with dilute NaOH or citric/phosphoric acid solution. Cold acetone (37.5 ml at -20° C.) was added and the precipitate collected on a medium porosity glass funnel and dried overnight at 2 millitorr. The protein pellet was ground to a fine powder and equilibrated at 4° C. over saturated aqueous potassium carbonate (RH: 43%) for 24 hrs.
# as §1
# [7] = SOA deacetylation catalyzed by pH precipitated enzymes in diisopropyl ether; format: biochemical
# Procedure: A wide variety of hydrolytic enzymes were initially screened for their ability to regioselectively deacetylate SOA in organic solvents. […] Enzyme activity is dependent upon the presence of a minimum shell of water surrounding the enzyme. […] It is known that one way to improve the catalytic power of an enzyme in organic solvent is to use it in the right ionic state.
# as §4, §1
# [8] = SOP deacylation catalyzed by pH precipitated enzymes in diisopropyl ether; format: biochemical
# Procedure: To increase the number and/or activities of enzymes active with SOP, pH precipitation experiments, as described for SOA, were undertaken.
# as §4
# [9] = HPLC sucrose heptaacetate peak height
# [10] = diisopropyl ether, 24 hrs incubation, HPLC
molecule,measurement,setting,value
CCOCCOCC [ethylene glycol diethyl ether],log P,[1],0.87
same,SOA,lipase AY 30 [2],85.0%
same,SheptaA,lipase AY 30 [2],13.5%
same,ShexaA,lipase AY 30 [2],1.5%
"CC1CCC(C)O1 (stereo not shown) [2,5-dimethyl THF, 2,5-dimethyltetrahydrofuran]",log P,[1],1.5
same,SOA,lipase AY 30 [2],96.2%
same,SheptaA,lipase AY 30 [2],3.8%
same,ShexaA,lipase AY 30 [2],0%
CCC(C)=O [butanone],SheptaP's (8.3 min),protease type XXIII,1.0%
same,SheptaP's (8.9 min),protease type XXIII,0%
same,SheptaP's (9.9 min),protease type XXIII,0.2%
same,SOP,protease type XXIII,98.8%
same,ShexaP (4.2 min),lipase AY 30 [3],0%
same,SheptaP's (8.9 min),lipase AY 30 [3],0%
same,SheptaP's (9.4 min),lipase AY 30 [3],0.2%
same,SheptaP's ([…]),lipase AY 30 [3],0.9%
same,SOA,lipase AY 30 [3],98.9%
CC(C)=O [acetone],SheptaP's (8.3 min),protease type XXIII,0.7%
same,SheptaP's (8.9 min),protease type XXIII,0%
same,SheptaP's (9.9 min),protease type XXIII,0.2%
same,SOP,protease type XXIII,99.1%
same,ShexaP (4.2 min),lipase AY 30 [3],0%
same,SheptaP's (8.9 min),lipase AY 30 [3],0%
same,SheptaP's (9.4 min),lipase AY 30 [3],0.1%
same,SheptaP's ([…]),lipase AY 30 [3],1.2%
same,SOA,lipase AY 30 [3],98.7%
same,SOA,lipase AY 30 [2],98.6%
same,SheptaA,lipase AY 30 [2],1.4%
same,ShexaA,lipase AY 30 [2],0%
"CC1CCCO1 (stereo not shown) [2-methyl THF, 2-methyltetrahydrofuran]",log P,[1],1.0
same,SOA,lipase AY 30 [2],96.2%
same,SheptaA,lipase AY 30 [2],3.8%
same,ShexaA,lipase AY 30 [2],0%
OC1CCCCC1 [cyclohexanol],% conv,proleather,38.2%
same,regiochem,proleather,3.9
same,regiochem,alcalase,8.0
same,% conv,lipase AP 12,25.0%
same,SOA,lipase AY 30 [2],96.8%
same,SheptaA,lipase AY 30 [2],2.9%
same,ShexaA,lipase AY 30 [2],0.3%
CC#N [acetonitrile],SheptaP's (8.3 min),protease type XXIII,1.1%
same,SheptaP's (8.9 min),protease type XXIII,0%
same,SheptaP's (9.9 min),protease type XXIII,0.5%
same,SOP,protease type XXIII,98.4%
same,ShexaP (4.2 min),lipase AY 30 [3],0%
same,SheptaP's (8.9 min),lipase AY 30 [3],0%
same,SheptaP's (9.4 min),lipase AY 30 [3],0.2%
same,SheptaP's ([…]),lipase AY 30 [3],1.1%
same,SOA,lipase AY 30 [3],98.7%
same,SOA,lipase AY 30 [2],98.6%
same,SheptaA,lipase AY 30 [2],1.4%
same,ShexaA,lipase AY 30 [2],0%
OCc1ccccc1 [benzyl alcohol],% conv,proleather,46.8%
same,regiochem,proleather,6.6
same,regiochem,alcalase,8.1
same,% conv,lipase AP 12,22.5%
"CC1(C)CCC(C)(C)O1 [2,2,5,5-tetramethyl THF, 2,2,5,5-tetramethyltetrahydrofuran]",log P,[1],2.5
same,SOA,lipase AY 30 [2],68.4%
same,SheptaA,lipase AY 30 [2],31.6%
bromelain,enzyme activity,[4],22.9 U/mg
same,SheptaP's (9.6 min),[5]; HPLC peak 9.6 min,0.3
same,SheptaP's ([…]),[5],0.7
same,SOP,[5],99.0%
B1,regiochemistry 1'OH,[6]; [9],13
same,regiochemistry 6'OH,[6]; [9],2
same,buffer pH (optimal pH for enzyme activity in anhydrous diisopropyl ether),[6]; SOA deacetylation,9.0
same,regioselectivity of SOA deacetylation,[6],primarily at 1'- position with some reaction occurring at the 6'- position
same,regioselectivity of SOA deacetylation,[6]; listed as Alcalase,at the 1' position and secondarily at the 6' position
same,% conv,[6]; total of all sucrose hepta and hexa acetates,28.1%
same,buffer pH (optimal pH for enzyme activity in anhydrous solvents),[7]; SOA deacetylation,9.0
same,SheptaAs,[7]; [10],39.7%
same,ShexaAs,[7]; [10],10.9%
same,SOA,"[7]; residual SOA, diisopropyl ether, 24 hrs incubation, HPLC",49.4%
same,buffer pH (optimal pH for enzyme activity in anhydrous media),[8]; SOP deacylation,9.0
same,SOP,"[8]; diisopropyl ether, 24 hrs",81.8%
same,SheptaP's,"[8]; diisopropyl ether, 24 hrs",15.9%
same,ShexaP's,"[8]; diisopropyl ether, 24 hrs",2.3%
same,capability of deacetylating SOP,"[8]; pH precipitated, in words",capable of deacetylating SOP
B2,enzyme activity,[4],2.8 U/mg
same,SheptaP's (7.0 min),[5]; HPLC peak 7.0 min,0.3
same,SheptaP's ([…]),[5],0.9
same,SOP,[5],98.8%
